Results as given in paper PMC10669220, “In Vitro α-Glucosidase and α-Amylase Inhibition, Cytotoxicity and Free Radical Scavenging Profiling of the 6-Halogeno and Mixed 6,8-Dihalogenated 2-Aryl-4-methyl-1,2-dihydroquinazoline 3-Oxides” (Antioxidants, 2023).
Where “and” joins values, the source holds several entries; their conditions need not be identical. Equal values may be shown once.

Assays:
[1] = biological target: T1, α-Glucosidase type 1 from baker's yeast (Saccharomyces cerevisiae, UniProt P53341); assay: biochemical; settings: IC50 α-Glucosidase, mean ± SD, triplicate; tested at 1, 5, 10, 25, 50 µM
T1 construct: purchased Sigma Aldrich (Pty) Ltd. G5003
T1 sequence (P53341 whole entry): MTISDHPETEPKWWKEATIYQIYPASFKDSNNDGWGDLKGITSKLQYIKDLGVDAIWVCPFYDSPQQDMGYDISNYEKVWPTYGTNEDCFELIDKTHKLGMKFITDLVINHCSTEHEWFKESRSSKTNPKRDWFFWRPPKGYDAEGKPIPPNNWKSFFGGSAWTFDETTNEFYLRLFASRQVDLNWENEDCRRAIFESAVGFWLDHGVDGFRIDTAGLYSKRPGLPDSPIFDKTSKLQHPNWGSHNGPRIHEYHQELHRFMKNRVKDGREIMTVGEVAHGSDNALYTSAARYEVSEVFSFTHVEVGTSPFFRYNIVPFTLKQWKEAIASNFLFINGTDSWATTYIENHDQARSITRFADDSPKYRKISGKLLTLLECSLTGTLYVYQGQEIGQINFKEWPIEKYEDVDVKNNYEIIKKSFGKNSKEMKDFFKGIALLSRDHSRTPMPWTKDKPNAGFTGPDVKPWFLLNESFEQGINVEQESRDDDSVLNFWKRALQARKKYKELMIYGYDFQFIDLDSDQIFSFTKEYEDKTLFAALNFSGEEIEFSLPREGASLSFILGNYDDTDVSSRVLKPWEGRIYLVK
Procedure: The assay was conducted in triplicate following a method described in our previous study. […] After pre-incubation, 17 µL of 2 mM PNP-G was added. The absorbances were recorded in a 96-well microplate at 400 nm using an Elisa plate reader (Varioskan Flash, ThermoFischer Scientific, Vantaa, Finland). The average values obtained from the readings were used to determine the IC50 and standard deviation values using a GraphPad Prism software (Version 8, GraphPad Software Inc., San Diego, CA, USA). The average values obtained from the absorbance readings were used to determine the IC50 and standard deviation values in GraphPad prism from nonlinear regression dose–response curves.

human α-amylase = biological target: T2, human α-amylase (Homo sapiens, UniProt P04746); assay: α-amylase inhibitor screening kit assay; type: biochemical; settings: mean ± SD, triplicate; tested at 1, 5, 10, 25, 50 µM
T2 construct: purchased Abcam ab283391
T2 sequence (P04746 16-511): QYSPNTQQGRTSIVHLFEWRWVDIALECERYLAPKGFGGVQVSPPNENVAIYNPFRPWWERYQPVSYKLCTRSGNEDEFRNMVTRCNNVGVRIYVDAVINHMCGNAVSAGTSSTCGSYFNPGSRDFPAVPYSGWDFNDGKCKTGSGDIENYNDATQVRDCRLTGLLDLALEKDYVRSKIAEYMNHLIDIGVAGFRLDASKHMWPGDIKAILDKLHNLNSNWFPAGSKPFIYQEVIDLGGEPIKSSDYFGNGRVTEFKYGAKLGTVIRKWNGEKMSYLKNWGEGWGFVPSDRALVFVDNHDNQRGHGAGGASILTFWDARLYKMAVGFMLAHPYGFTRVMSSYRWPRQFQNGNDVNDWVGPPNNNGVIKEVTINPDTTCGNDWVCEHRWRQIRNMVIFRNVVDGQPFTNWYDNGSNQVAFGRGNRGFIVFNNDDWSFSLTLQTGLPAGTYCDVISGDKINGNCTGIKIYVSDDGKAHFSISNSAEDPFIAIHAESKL
Procedure: The α-amylase assay was performed in triplicate, using a 96-well plate following the procedure recommended by the manufacturer as outlined in the α-amylase inhibitor Screening Kit (Catalogue No. ab283391; Abcam). […] The average values obtained from the absorbance readings were used to determine the IC50 and standard deviation values in GraphPad prism from nonlinear regression dose–response curves.

[2] = DPPH radical scavenging assay; settings: mean ± SD; 45 min in the dark; 512 nm
Procedure: The DPPH radical scavenging assay was conducted following the procedure described in our previous study. The test compounds and ascorbic acid at various concentrations (ranging from 0 µM to 50 µM) in DMSO were mixed with a solution of DPPH (0.20 mM) in methanol and incubated in the dark for 45 min. Five absorbance readings were recorded at 512 nm using an Elisa plate reader (Varioskan Flash, ThermoFisher Scientific, Vantaa, Finland). The experiment was carried out in triplicate, and averaged values from the absorbance readings were used to determine the IC50 and standard deviation values in GraphPad prism from nonlinear regression dose–response curves.

[3] = NO free radical scavenging assay (sodium nitroprusside/Griess); settings: mean ± SD; sodium nitroprusside, Griess reagent, 550 nm
Procedure: The assay was conducted following the method described in our previous study. A mixture of 10 mM sodium nitroprusside (20 µL), phosphate buffer (5 µL) and the test compound (5 µL) were incubated at 25 °C in a 96-well plate for 2.5 h. After incubation, 20 µL of Griess reagent (1.00 g of sulfanilic acid + 0.10 g naphthylethylene diamine dihydrochloride) was added to the previous mixture and allowed to stand for 30 min. […] Each experiment was performed in triplicate, and the average was taken. The average obtained from the absorbance readings was used to calculate the IC50 values in GraphPad prism from nonlinear regression dose–response curves.

[4] = system: NO generated from nitric oxide synthase (NOS); assay: Inhibitory activity against NO generated from NOS (EnzyChrom kit); type: biochemical; settings: mean ± SD, 1-50 µM
Procedure: A nitric oxide synthase (NOS) assay was performed following the procedure recommended by the manufacturer as outlined in the screening kit (Catalogue No. EINO-100; EnzyChrom). Various concentrations (1, 5, 10, 25 and 50 µM) of the compounds 3a, 3c, 3f, 3i, 3l, 3n and 3p and the reference standard, ascorbic acid, were prepared. The enzyme solution (12.5 U/mL NOS, 10 µL), assay buffer (25 µL) and test samples (5 µL) were incubated at room temperature for 15 min. After pre-incubation, 10 µL of reaction mix was added and incubated at 37 °C for 60 min. A 200 µL quantity of NO detection reagent was added, the detection reaction was run at 37 °C for 60 min, and absorbance was determined at a wavelength of 540 nm using an Elisa plate reader (Varioskan Flash, ThermoFisher Scientific, Vantaa, Finland). The average of three readings was used to calculate the NOS percentage inhibition using the following formula: % Inhibition=1−ΔOD Test Compd/ΔOD No Inhibitor ×100%
The IC50 values and standard deviation values were determined from nonlinear regression dose–response curve and compared with the results in GraphPad prism.

[5] = biological target: superoxide dismutase (SOD); assay: Superoxide dismutase (SOD) inhibitory assay (SOD assay kit-WST); type: biochemical; settings: duplicate; 1-50 µM; 25 °C, 30 min; read-out: IC50 SOD inhibition
Procedure: The antioxidant activity of the compounds 3a, 3c, 3f, 3i, 3l, 3n and 3p against superoxide radicals was assessed via enzymatic assay in vitro using the SOD assay kit-WST according to the manufacturer’s instructions (Sigma-Aldrich®). The reaction mixtures in the SOD kit were combined with 20 μL of working solution of the samples in a 96-well plate. Plates were gently shaken and then incubated at 25 °C for 30 min. The reference positive control, diphenyleneiodonium (DPI), and the compounds were tested at 01, 5, 10, 25 and 50 µM in duplicates. The inhibition activity of SOD on the reaction of […] generated the superoxide with a tetrazolium salt, which was then determined by measuring the absorbance of the mixtures at a wavelength of 450 nm using an Elisa plate reader (Varioskan Flash, ThermoFisher Scientific, Vantaa, Finland). The SOD activity values obtained used to calculate the percentage of inhibition. % SOD activity=ODx− ODy/ODx ×100% where ODx is the absorbance of the blank (untreated SOD) and ODy is the absorbance of the sample (treated SOD). All tests were performed in duplicate.

[6] = system: lung cancer (A549) cell line; assay: MTT cytotoxicity assay, A549; settings: for Cell viability percentage, A549: Table S3; for IC50: Homo sapiens, A549, read-out: IC50 A549
[7] = system: breast cancer (MCF-7) cell line; assay: MTT cytotoxicity assay, MCF-7; settings: for Cell viability percentage, MCF-7: Table S2; for IC50: Homo sapiens, MCF7, read-out: IC50 MCF-7
Procedure: Cells were cultured in sterile Dulbecco’s Minimal Essential Medium (DMEM, Gibco) supplemented with 10% fetal bovine serum (FBS) and 1% penicillin-streptomycin solution. […] Cell counting was carried out using a handheld automated cell counter (Scapter 3.0™, Merck, Burlington, MA, USA) and seeded (1 × 10^4 cells/well) into a 96-well plate. After 24 h, the cells were treated with different concentrations (1, 5, 10, 25 and 50 µM) of the test compounds and reference standards prepared in DMEM. The MTT solution (20 μL) prepared in PBS (5 mg/mL) was added to all the wells, and the plates were incubated for 4 h, followed by 1 h incubation with 100 µL of dimethyl sulfoxide (DMSO) to dissolve the formazan crystals. Untreated cells and 5% DMSO were included in the experiment as negative controls. All experiments were performed in triplicate. The plates were read at 570 nm at a reference wavelength of 630 nm using an ELISA plate reader (Varioskan Flash, ThermoFisher Scientific, Vantaa, Finland). The percentage of cell viability was calculated using the following formula, Cell viability %=At/Ab×100 where At represents the absorbance value of test compound and Ab the absorbance value of the blank. […] The data were expressed as means ± SD.

[8] = MTT cytotoxicity assay, HEK293-T; settings: human, HEK293-T cells
[9] = system: human embryonic kidney (HEK293-T) cell line; assay: MTT cytotoxicity assay, HEK293-T; settings: Homo sapiens, HEK-293T, read-out: IC50 Hek293-T

Row | Structure (SMILES) | IC50 [1] | IC50 (human α-amylase) | IC50 [2] | IC50 [3] | IC50 [4] | IC50 [5] | melting point | Cell viability percentage, A549 ([6]; Conc. 1 (µM per method)) | Cell viability percentage, A549 ([6]; Conc. 5 (µM per method)) | Cell viability percentage, A549 ([6]; Conc. 10 (µM per method)) | Cell viability percentage, A549 ([6]; Conc. 25 (µM per method)) | Cell viability percentage, A549 ([6]; Conc. 50 (µM per method)) | IC50 [6] | Cell viability percentage, MCF-7 ([7]; Conc. 1 (µM per method)) | Cell viability percentage, MCF-7 ([7]; Conc. 5 (µM per method)) | Cell viability percentage, MCF-7 ([7]; Conc. 10 (µM per method)) | Cell viability percentage, MCF-7 ([7]; Conc. 25 (µM per method)) | Cell viability percentage, MCF-7 ([7]; Conc. 50 (µM per method)) | IC50 [7] | viability at 1 µM [8] | other results
1 | CC1=[N+]([O-])C(c2ccc(F)cc2)Nc2ccc(I)cc21 (stereo not drawn) [Compound 3f] | 9.27 ± 0.02 µM | 0.64 ± 0.01 µM | 23.66 ± 0.009 µM | 6.74 ± 0.002 µM | 4.7 ± 0.004 µM | 11.59 ± 0.08 µM | 180 to 182 °C | 82,3715% | 71,9204% | 61,143% | 44,212% | 32,7708% | 13.71 ± 0.11 µM | 69,8879% | 62,4071% | 44,9558% | 32,649% | 23,6814% | 19.01 ± 0.04 µM | 72% | viability at 5 µM [8]: 55.2%; viability at 10 µM [8]: 47.8%; viability at 25 µM [8]: 36.7%; viability at 50 µM [8]: 14.7%; IC50 [9]: 22.32 ± 0.08 µM
2 | CC1=[N+]([O-])C(c2ccc(Cl)cc2)Nc2ccc(Br)cc21 (stereo not drawn) [Compound 3c] | 1.04 µM and 0.92 µM | 30.48 ± 0.02 µM | 33.52 ± 0.025 µM | 7.45 ± 0.002 µM | 1.1 ± 0.003 µM | 4.6 ± 0.14 µM | 171 to 173 °C | 73,4391% | 66,5879% | 54,3481% | 41,782% | 29,5534% | 15.26 ± 0.09 µM | 46,7898% | 44,7938% | 42,5981% | 41,6999% | 37,2256% | 25.48 ± 0.08 µM | 64.7% | viability at 5 µM [8]: 62.9%; viability at 10 µM [8]: 50.3%; viability at 25 µM [8]: 34.2%; viability at 50 µM [8]: 23.5%; IC50 [9]: 27.54 ± 0.05 µM
3 | COc1ccc(C2Nc3c(I)cc(Br)cc3C(C)=[N+]2[O-])cc1 (stereo not drawn) [Compound 3l] | 0.92 µM and 1.04 µM | 54.18 ± 0.01 µM | 27.7 ± 0.04 µM | 67.81 ± 0.004 µM | 1.06 ± 0.005 µM | 5.6 ± 0.17 µM | 153 to 155 °C | 89,6276% | 82,1465% | 60,333% | 45,5732% | 45,4944% | 16.34 ± 0.06 µM | 66,3742% | 55,5856% | 51,5919% | 35,1896% | 17,5102% | 18.12 ± 0.1 µM | 80.4% | viability at 5 µM [8]: 69.4%; viability at 10 µM [8]: 59.2%; viability at 25 µM [8]: 25.5%; viability at 50 µM [8]: 19.7%; IC50 [9]: 32.39 ± 0.17 µM
